The results in this text go back to patent US11945784B2, “IRE1 small molecule inhibitors” (Cornell University, priority 2018, dated 2024).

For one experiment, the target named is IRE1 (Homo sapiens (Human), UniProt O75460). The experiment is described as follows: qPCR assay of XBP1 splicing. The class given is cell-based. The following applies: 293T cells, tunicamycin-induced ER stress. How it is done:
A quantitative PCR (qPCR) assay was performed to evaluate the ability of compound 17 and compound 23 to inhibit IRE1. To perform the qPCR assay, 50,000 293T cells were plated in each well of a flat-bottomed 96 well plates in duplicate. Test compounds or DMSO control were diluted to 4× their final concentration and 50 microliters were added to the cells. Compounds were incubated for 1 hour, then 50 microliters of 4× concentrated tunicamycin (8 ug/mL) were added to the cells to induce ER stress. ER stress was allowed to accumulate for 6 hours, after which the supernatant was removed and the cells were lysed with 150 uL of RLT lysis buffer (Qiagen). Samples were frozen at −80 degrees Celsius until RNA was isolated with the RNeasy 96 kit (Qiagen) according to the manufacturer's recommended protocol. The samples were used for subsequent RT-qPCR analysis of beta-actin, XBP1s, total XBP1 and SEC24D. Gene expression was evaluated by quantitative PCR for XBP1s, total XBP1 and SEC24D transcripts using the 2^(−ΔCT) method for calculating normalized gene expression. Gene expression levels were normalized to ACTB transcripts. XBP1 splicing is calculated as XBP1s expression divided by total XBP1 expression. […] See FIG. 3A (Compound 17) and FIG. 3B (Compound 23).

Experiment [1] deals with T1, IRE1α (Homo sapiens (Human), UniProt O75460). The experiment is described as follows: In vitro luciferase assay (IRE1α Endoribonuclease Nanoluciferase Assay). The following applies: 293T cells, XBP1 luciferase reporter. The format is cell-based. The procedure, abridged: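 293T cells transiently transfected with a PGK-Luc2-P2A-XBP1u-nanoluciferase-PEST reporter for IRE1α-dependent XBP1 splicing, replated, and treated next day with ER stressors ± inhibitors. Lysates read sequentially for luminescence (OneGlo, then Stop and Glo), 1000 ms integration.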
T1 sequence (O75460 19-977): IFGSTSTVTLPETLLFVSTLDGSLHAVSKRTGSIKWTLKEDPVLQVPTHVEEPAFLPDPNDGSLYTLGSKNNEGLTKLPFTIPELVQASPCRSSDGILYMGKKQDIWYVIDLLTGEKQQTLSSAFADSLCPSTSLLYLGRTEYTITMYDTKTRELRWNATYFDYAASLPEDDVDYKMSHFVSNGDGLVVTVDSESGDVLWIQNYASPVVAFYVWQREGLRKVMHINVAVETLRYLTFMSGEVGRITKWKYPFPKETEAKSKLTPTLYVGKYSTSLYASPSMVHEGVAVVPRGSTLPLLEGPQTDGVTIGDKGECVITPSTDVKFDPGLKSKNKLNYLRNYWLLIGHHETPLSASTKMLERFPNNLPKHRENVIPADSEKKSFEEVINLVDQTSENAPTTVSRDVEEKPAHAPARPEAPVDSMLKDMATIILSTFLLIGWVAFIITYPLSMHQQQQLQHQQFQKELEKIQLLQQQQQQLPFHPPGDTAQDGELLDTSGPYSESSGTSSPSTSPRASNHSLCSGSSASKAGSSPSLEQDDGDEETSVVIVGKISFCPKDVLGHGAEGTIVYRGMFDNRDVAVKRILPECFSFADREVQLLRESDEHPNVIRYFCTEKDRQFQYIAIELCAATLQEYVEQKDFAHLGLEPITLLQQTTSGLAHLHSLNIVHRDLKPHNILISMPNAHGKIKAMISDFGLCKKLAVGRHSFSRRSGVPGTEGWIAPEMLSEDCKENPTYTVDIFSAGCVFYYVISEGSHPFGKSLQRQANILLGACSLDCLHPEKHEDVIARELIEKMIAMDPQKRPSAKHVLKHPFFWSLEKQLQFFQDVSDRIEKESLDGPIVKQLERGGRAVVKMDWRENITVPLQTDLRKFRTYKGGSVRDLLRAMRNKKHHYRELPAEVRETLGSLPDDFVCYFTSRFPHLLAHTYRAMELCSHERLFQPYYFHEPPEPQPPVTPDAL

The target in experiment [2] is T1, IRE1α. The experiment is described as follows: In vitro FRET assay. The class given is biochemical. The following applies: XBP1 RNA probe. The method, boiled down: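 IRE1α (diluted to 2 nM) in citrate buffer pH 7.15 with serially diluted compound; FAM/Iowa Black-quenched XBP1 RNA probe (wildtype or non-spliceable mutant) added, fluorescence read […]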
A further experiment deals with 293T cells. The experiment is described as follows: Growth assay (cytotoxicity). The following applies: Homo sapiens, HEK-293T, 48 h, 2 day incubation, read-out: percentage growth at 5 uM. The class given is cell-based. Here is the method:
A growth assay is performed to evaluate the compounds disclosed in Table 1 for cytotoxicity. Briefly, 5,000,000 293T cells are resuspended in 18 mL of cDMEM for a final concentration of 277,777 cells/mL. 180 μL (50,000 cells) cDMEM was seeded per well in 96 well flat bottom plate, with some wells left unfilled. In a 96 well plate, […] cDMEM and 1 uL of any one of the compounds disclosed herein. 133.3 uL cDMEM is added to wells 1, 2, 3, 5, 6, 7, 9, 10, and 11 of row A. Wells are serially diluted with 66.7 uL (highest concentration on right, lowest on left) to the total concentrations shown below. 20 uL of each dilution is transferred in duplicate to the cells plated in the 96-well plate. The plate is then placed in a humidified chamber for a 2 day incubation, and then photographed (media is more yellow in wells with potent cell growth). Absorbance is then measured at […] (lower for more acidic media) and […] (higher for more acidic media).

Chain of IRE1 (O75460 19-977): as above

With `COc1nc(NS(=O)(=O)c2ccccc2Cl)ccc1/C=C/c1cnc(NC2CCC(N(C)C)CC2)nc1` (centres unmarked) [Compound 17, 2-chloro-N-(5-((E)-2-(2-(((1r,4r)-4-(dimethylamino)cyclohexyl)amino)pyrimidin-5-yl)vinyl)-6-methoxypyridin-2-yl)benzenesulfonamide], the half-inhibitory concentration (IC50) on IRE1 was 4.95 nM; against IRE1α [2] it was at most 1 nM. The EC50 at IRE1α [1] was at most 5 nM. The viability at 5 µM in the experiment with 293T cells is above 75%.
In the same order, the values of `Cc1nc(NS(=O)(=O)c2ccccc2Cl)ccc1/C=C/c1cnc(NC2CCC(N(C)C)CC2)nc1` (centres unmarked) [Compound 23, 2-chloro-N-(5-((E)-2-(2-(((1r,4r)-4-(dimethylamino)cyclohexyl)amino)pyrimidin-5-yl)vinyl)-6-methylpyridin-2-yl)benzenesulfonamide] are 4.39 nM, at most 1 nM, at most 5 nM and above 75%.
Consider `Cc1nc(NS(=O)(=O)c2ccccc2Cl)c(F)cc1/C=C/c1cnc(NC2CCC(N(C)C)CC2)nc1` (centres unmarked) [Compound 25, 2-chloro-N-(5-((E)-2-(2-(((1r,4r)-4-(dimethylamino)cyclohexyl)amino)pyrimidin-5-yl)vinyl)-3-fluoro-6-methylpyridin-2-yl)benzenesulfonamide], for which the EC50 on IRE1α [1] lay in the range of 5 to 50 nM. Moreover, at IRE1α [2], the IC50 is at most 1 nM. Also, the viability at 5 µM with 293T cells was above 75%.
In the same order, the values of `Cc1cc(NS(=O)(=O)c2ccccc2Cl)ccc1/C=C/c1cnc(NC2CCC(N(C)C)CC2)nc1` (centres unmarked) [Compound 26, 2-chloro-N-(4-((E)-2-(2-(((1r,4r)-4-(dimethylamino)cyclohexyl)amino)pyrimidin-5-yl)vinyl)-3-methylphenyl)benzenesulfonamide] are at most 5 nM, at most 1 nM and above 35%.
Consider `Cc1cc(NS(=O)(=O)c2ccccc2Cl)cc(F)c1/C=C/c1cnc(NC2CCC(N(C)C)CC2)nc1` (centres unmarked) [Compound 27, 2-chloro-N-(4-((E)-2-(2-(((1r,4r)-4-(dimethylamino)cyclohexyl)amino)pyrimidin-5-yl)vinyl)-3-fluoro-5-methylphenyl)benzenesulfonamide], for which the EC50 on IRE1α [1] is at most 5 nM. Also, the IC50 against IRE1α [2] was at most 1 nM. Further, in the experiment on 293T cells, the viability at 5 µM is above 50%.
On the same counts, the results for `COc1nc(NS(=O)(=O)c2ccc(F)c(F)c2Cl)ccc1/C=C/c1cnc(NC2CCC(N(C)C)CC2)nc1` (centres unmarked) [Compound 41, 2-chloro-N-(5-((E)-2-(2-(((1r,4r)-4-(dimethylamino)cyclohexyl)amino)pyrimidin-5-yl)vinyl)-6-methoxypyridin-2-yl)-3,4-difluorobenzenesulfonamide] are 5 to 50 nM, at most 1 nM and above 75%.
On IRE1α [1], `CCc1nc(NS(=O)(=O)c2ccccc2Cl)ccc1C=Cc1cnc(NC2CCC(N)CC2)nc1` (centres unmarked) [Compound 45, N-(5-(2-(2-((1r,4r)-4-aminocyclohexyl)amino)pyrimidin-5-yl)vinyl)-6-ethylpyridin-2-yl)-2-chlorobenzenesulfonamide] came in with an EC50 of 5 to 50 nM. Further, the half-inhibitory concentration (IC50) against IRE1α [2] is at most 1 nM. Moreover, the viability at 5 µM with 293T cells was above 75%.
In the same order, the values of `CCc1nc(NS(=O)(=O)c2ccccc2Cl)ccc1/C=C/c1cnc(NC2CCC(NC)CC2)nc1` (centres unmarked) [Compound 47, 2-chloro-N-(6-ethyl-5-((E)-2-(2-(((1r,4r)-4-(methylamino)cyclohexyl)amino)pyrimidin-5-yl)vinyl)pyridin-2-yl)benzenesulfonamide] are 5 to 50 nM, at most 1 nM and above 75%.
